Assay results reported in patent publication US4959361A, “Triazolo(4,3-A)(1,4)benzodiazepines and thieno (3,2-F)(1,2,4)triazolo(4,3-A)(1,4)diazepine compounds which have useful activity as platelet activating factor (PAF) antagonists” (Hoffmann-La Roche Inc., priority 1988, dated 1990).
Read-outs that look alike come from different tables or passages of the source.

What was measured:
[1] = tested on: PAF Induced Bronchoconstriction; experiment: PAF induced bronchoconstriction assay, intravenous testing; type: in vivo, guinea pig; settings: for ED50: Cavia porcellus, iv, 1 min, i.v., 1 minute pretreatment, PAF 1 μg/kg i.v., read-out: Bronchoconstriction ID-50 i.v.; for % inhibition of bronchoconstriction: Table II (*), at 0. mg/kg i.v. (dose digit cut off)
Protocol: Male animals (Hartlet Strain, 400-500 g were anesthetized with urethane (2 g/kg, i.p.). Each animals' trachea was cannulated and the guinea pigs were respirated using a Harvard small animal rodent respirator (3.0 cc stroke volume, 40 breaths per min.). Tracheal pressure was recorded from a cannula inserted in the trachea and connected to a Statham pressure transducer.
The jugular vein was cannulated for administering compounds. Spontaneous breathing was arrested with succinylcholine (1.2 mg/kg, i.v.) administered 2 minutes prior to intravenous injection of platelet activating factor PAF).
For the intravenous testing, the guinea pig is given a 1-minute pretreatment with propranolol at a dose of 0.1 mg/kg intravenously. The test compound is administered with a 1 minute pretreatment prior to intravenous challenge with PAF. The animal is then challenged with a 1 μg/kg intravenous dose of PAF and the change in tracheal pressure is measured.
The change in tracheal pressure is determined by subtracting the steady state baseline achieved after administration of succinylcholine from the peak broncho. constriction seen after challenge with PAF. The mean is calculated for each test compound and compared to the mean of the control animals to give the percent inhibition of bronchoconstriction. The standard error is calculated as the standard error of the mean.

[2] = tested on: PAF Induced Bronchoconstriction; experiment: PAF induced bronchoconstriction assay, oral testing; type: in vivo, guinea pig; settings: Cavia porcellus, 2 hr; for ED50: p.o., read-out: Bronchoconstriction ID-50 p.o. 2 hr; for inhibition in vivo at 3 mg/kg: Table II (*), 3 mg/kg p.o.
[3] = molecular target: T1, PAF-binding, dog platelets (Canis lupus familiaris, UniProt A0A8I3NSH0); experiment: PAF binding assay (radiolabelled H-PAF, washed dog platelets); settings: 10 minutes at room temperature, read-out: PAF-binding IC-50
T1 construct: dog platelets; from tissue; host or cells: washed platelets from citrated dog blood
T1 sequence (A0A8I3NSH0 1-343): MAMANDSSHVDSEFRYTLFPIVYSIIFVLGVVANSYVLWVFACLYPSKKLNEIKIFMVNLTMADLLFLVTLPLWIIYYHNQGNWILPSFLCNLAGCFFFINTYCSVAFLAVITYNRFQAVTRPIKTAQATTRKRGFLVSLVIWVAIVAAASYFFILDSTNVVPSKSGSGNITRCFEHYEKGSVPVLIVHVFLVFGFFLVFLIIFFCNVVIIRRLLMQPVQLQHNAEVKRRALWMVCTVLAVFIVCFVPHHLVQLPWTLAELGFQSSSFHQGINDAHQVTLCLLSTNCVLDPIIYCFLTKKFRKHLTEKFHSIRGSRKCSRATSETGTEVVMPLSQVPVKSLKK
Protocol: The binding assay was done in […] polyethylene microcentrifuge tubes (Beckman) containing 50 μl of an oil mixture of 2 parts Siliconol AR200 (Serva): 1 part Silicone Fluid (Arthur H. Thoma). Buffer, standards, or analogs (150 μl total volume) were added to the tubes. Radiolabelled H-PAF (50 μl) was then added to the tubes. The reaction was started by the addition of 50 μl of dog platelets (2×10^7 platelets). The tubes were capped, inverted several times to mix, and incubated for 10 minutes at room temperature. The platelets were separated from the incubation mixture by centrifuging 1 minute in a Beckman Microfuge B centrifuge. The tip of the microfuge tube was cut off, and the platelets were washed out of the tip with 200 μl of 50% methanol (Burdick and Jackson). Aquasol (NEN, 10 ml) was added and the radioactivity in the samples was determined using an LS 8100 Beckman liquid scintillation counter linked to a Techtran tape recorder Data was processed through an in-house computer system. Alternatively, radioactivity was determined using a Searle Mark III liquid scintillation counter linked to a Iso-Data microprocessor.
(b) preparation of platelets
Blood was collected from anesthesized or unanesthesized dogs into 50 ml plastic centrifuge tubes containing 3.8% sodium citrate as the anticoagulant (1 volume of citrate/9 volumes of blood). The red cells were removed by centrifugation for 15 minutes at 600 rpm (100-125 g) at room temperature. An aliquot of the supernatant platelet rich plasma (PRP) was saved for cell counting and the remainder was acidified to pH 6.5 with 0.15M citric acid. The platelet pellet was obtained after a 10 minute centrifugation at 2000 rpm (1000 g) at room temperature. Washed platelets were prepared by resuspending the platelet pellet once with pBS containing 1 mM EDTA, centrifuging as noted, and then resuspending the platelets in 0.1% BSA pBS. An aliquot of the washed platelets was counted. Platelets used for binding assays were diluted to 2×10^7 platelets/assay tube (4×10^8 platelets/ml). platelet countinq was done using a Royco Cell-Crit 921.

[4] = Table I, triazolothienodiazepines
[5] = po, Table I, at a dose of 0.3 mg/kg p.o.
[6] = Table II, triazolobenzodiazepines
[7] = Table II (**), at an oral dose of 0.3 mg/kg

Structure (SMILES)	ED50 ([1]; Table I) [mg/kg]	IC50 [3, 4] [nM]	IC50 [3, 6] [nM]	other results
Cc1nnc2n1-c1sc(C#CCN3C(=O)c4cccc5cccc(c45)C3=O)cc1C(c1ccccc1Cl)=NC2	< 0.1	12		ED50 ([2]; po, Table I): 0.025 mg/kg
Cc1nnc2n1-c1sc(C#CCN3C(=O)C(=O)c4ccccc43)cc1C(c1ccccc1Cl)=NC2	< 0.1	7		ED50 ([2]; po, Table I): 0.06 mg/kg
Cc1nnc2n1-c1sc(C#CCN3C(=O)c4cccc5cccc3c45)cc1C(c1ccccc1Cl)=NC2	< 0.1	5		ED50 ([2]; po, Table I): 0.042 mg/kg
Cc1nnc2n1-c1sc(C#C[Si](C)(C)C)cc1C(c1ccccc1Cl)=NC2	0.28	20		
C#Cc1cc2c(s1)-n1c(C)nnc1CN=C2c1ccccc1Cl	0.02	10		inhibition in vivo at 0.3 mg/kg [2, 5]: 17%
Cc1nnc2n1-c1sc(C#CCn3cnc4ccccc43)cc1C(c1ccccc1Cl)=NC2		4.5		ED50 ([2]; po, Table I): 0.12 mg/kg
Cc1nnc2n1-c1sc(C#CCN3C(=O)Cc4ccccc43)cc1C(c1ccccc1Cl)=NC2		3		ED50 ([2]; po, Table I): 0.05 mg/kg
Cc1nnc2n1-c1sc(C#CCN3C(=O)c4ccccc4S3(=O)=O)cc1C(c1ccccc1Cl)=NC2		4		inhibition in vivo at 0.3 mg/kg [2, 5]: 27%
Cc1nnc2n1-c1sc(C#CCn3nc4ccccn4c3=O)cc1C(c1ccccc1Cl)=NC2		11		inhibition in vivo at 0.3 mg/kg [2, 5]: 79%
Cc1nnc2n1-c1sc(C#CCn3ncc4ccccc43)cc1C(c1ccccc1Cl)=NC2	0.002	1		ED50 ([2]; po, Table I): 0.015 mg/kg
Cc1nnc2n1-c1sc(C#CCN3C(=O)COc4ccccc43)cc1C(c1ccccc1Cl)=NC2	0.007	0.7		ED50 ([2]; po, Table I): 0.019 mg/kg
Cc1nnc2n1-c1sc(C#CCn3cnc4c3c(=O)n(C)c(=O)n4C)cc1C(c1ccccc1Cl)=NC2	0.043	20		inhibition in vivo at 0.3 mg/kg [2, 5]: 27%
Cc1nnc2n1-c1sc(C#CCn3c(=O)c4c(ncn4C)n(C)c3=O)cc1C(c1ccccc1Cl)=NC2	0.018	7		inhibition in vivo at 0.3 mg/kg [2, 5]: 38%
Cc1nnc2n1-c1sc(C#CCOc3ccccc3)cc1C(c1ccccc1Cl)=NC2	0.006			inhibition in vivo at 0.3 mg/kg [2, 5]: 67%
Cc1c(C)c2c(c(C)c1O)CCC(C)(C#Cc1cc3c(s1)-n1c(C)nnc1CN=C3c1ccccc1Cl)O2 (centres unmarked)	0.027	45		
Cc1nnc2n1-c1sc(C#Cc3ccccc3)cc1C(c1ccccc1Cl)=NC2	> 0.1	100		
Cc1nnc2n1-c1sc(C#CCn3c(=O)c4ccccc4c4ccccc43)cc1C(c1ccccc1Cl)=[N+]([O-])C2	0.017	15		
Cc1nnc2n1-c1sc(C#CCn3c(=O)c4ccccc4c4ccccc43)cc1C(c1ccccc1Cl)=NC2O (centres unmarked)	0.022	25		
Cc1nnc2n1-c1sc(C#CCn3c(=O)c4ccccc4c(=O)c4ccccc43)cc1C(c1ccccc1Cl)=NC2	0.008			ED50 ([2]; po, Table I): 0.026 mg/kg
Cc1nnc2n1-c1sc(C#CCN3C(=O)COc4cc(F)ccc43)cc1C(c1ccccc1Cl)=NC2	0.005			ED50 ([2]; po, Table I): 0.016 mg/kg
Cc1nnc2n1-c1sc(C#CCN3CCc4ccccc4C3=O)cc1C(c1ccccc1Cl)=NC2	0.008			ED50 ([2]; po, Table I): 0.016 mg/kg
Cc1nnc2n1-c1sc(C#CCn3c(=O)c4cc(Cl)ccc4c4ccc(Cl)cc43)cc1C(c1ccccc1Cl)=NC2	0.008			
Cc1nnc2n1-c1sc(C#CCn3c4ccccc4c(=O)c4ccccc43)cc1C(c1ccccc1Cl)=NC2	0.01			
Cc1nnc2n1-c1ccc(C#CCN3C(=O)c4cccc5cccc(c45)C3=O)cc1C(c1ccccc1Cl)=NC2				inhibition in vivo at 3 mg/kg ([2]; po): 99%

Structure (SMILES)	ED50 ([1]; Table I) [mg/kg]	IC50 [3, 4] [nM]	IC50 [3, 6] [nM]	other results
Cc1nnc2n1-c1ccc(C#CCn3c(=O)oc4ccccc43)cc1C(c1ccccc1Cl)=NC2			20	inhibition in vivo at 3 mg/kg ([2]; po): 91%
Cc1nnc2n1-c1ccc(C#CCn3cnc4ccccc43)cc1C(c1ccccc1Cl)=NC2			15	
Cc1nnc2n1-c1ccc(C#CCN3C(=O)CSc4ccccc43)cc1C(c1ccccc1F)=NC2				% inhibition of bronchoconstriction [1]: 99%; inhibition in vivo at 3 mg/kg ([2]; po): 99%
Cc1nnc2n1-c1ccc(C#CCN3C(=O)COc4ccccc43)cc1C(c1ccccc1F)=NC2				% inhibition of bronchoconstriction [1]: 100%; inhibition in vivo at 3 mg/kg ([2]; po): 98%
Cc1nnc2n1-c1ccc(C#CCn3cnc4ccccc4c3=O)cc1C(c1ccccc1F)=NC2			70	
Cc1nnc2n1-c1ccc(C#CCn3c(C)nc4ccccc4c3=O)cc1C(c1ccccc1F)=NC2			50	
Cc1nnc2n1-c1ccc(C#CCN3C(=O)C(=O)c4ccccc43)cc1C(c1ccccc1Cl)=NC2			350	% inhibition of bronchoconstriction [1]: 100%
Cc1nnc2n1-c1ccc(C#CCN3C(=O)Cc4ccccc43)cc1C(c1ccccc1Cl)=NC2			< 10	
Cc1nnc2n1-c1ccc(C#CCN3C(=O)CN(C)C(=O)c4ccccc43)cc1C(c1ccccc1F)=NC2			160	
Cc1nnc2n1-c1ccc(C#CCOc3cccnc3)cc1C(c1ccccc1Cl)=NC2			130	ED50 ([1]; Table II): 0.005 mg/kg
Cc1nnc2n1-c1ccc(C#CCN3C(=O)C4CCCN4C3=O)cc1C(c1ccccc1F)=NC2 (centres unmarked)			200	inhibition in vivo at 3 mg/kg ([2]; po): 99%
Cc1nnc2n1-c1ccc(C#CCN3C(=O)c4ccccc4S3(=O)=O)cc1C(c1ccccc1F)=NC2			150	
Cc1nnc2n1-c1ccc(C#CCN3Cc4ccccc4C3=O)cc1C(c1ccccc1F)=NC2			225	inhibition in vivo at 3 mg/kg ([2]; po): 100%
Cc1nnc2n1-c1ccc(C#CCn3nc4ccccn4c3=O)cc1C(c1ccccc1F)=NC2			350	inhibition in vivo at 3 mg/kg ([2]; po): 43%
Cc1nnc2n1-c1ccc(C#CCn3ncc4ccccc43)cc1C(c1ccccc1F)=NC2			< 10	
Cc1nnc2n1-c1ccc(C#CCN3C(=O)C4CC=CCC4C3=O)cc1C(c1ccccc1F)=NC2 (centres unmarked)			50	inhibition in vivo at 3 mg/kg ([2]; po): 99%
Cc1nnc2n1-c1ccc(C#CCOc3ccccc3)cc1C(c1ccccc1Cl)=NC2			< 10	inhibition in vivo at 0.3 mg/kg [2, 7]: 37%
Cc1nnc2n1-c1ccc(C#CCN3C(=O)Cc4ccccc43)cc1C(c1ccccc1F)=NC2			< 10	inhibition in vivo at 0.3 mg/kg [2, 7]: 32%
Cc1nnc2n1-c1ccc(C#CCn3ccc4ccccc43)cc1C(c1ccccc1F)=NC2				ED50 ([2]; po, Table II): > 0.3 mg/kg
Cc1nnc2n1-c1ccc(C#CCn3c(=O)c4c(ncn4C)n(C)c3=O)cc1C(c1ccccc1F)=NC2				ED50 ([2]; po, Table II): > 0.3 mg/kg
Cc1nnc2n1-c1ccc(C#CCCN3C(=O)c4ccccc4C3=O)cc1C(c1ccccc1F)=NC2				inhibition in vivo at 0.3 mg/kg [2, 7]: 54%
O=C1c2ccccc2C(=O)N1CC#Cc1ccc2c(c1)C(c1ccccc1F)=NCc1nnc(C(F)(F)F)n1-2				ED50 ([1]; Table II): 0.44 mg/kg; ED50 ([2]; po, Table II): 0.3 mg/kg
Cc1nnc2n1-c1ccc(C#CCN3C(=O)CCc4ccccc43)cc1C(c1ccccc1F)=N[C@H]2C			6	ED50 ([1]; Table II): 0.008 mg/kg
